Measurements: patent publication US20110200545A1, “DEODORANT COMPOSITION AND METHODS FOR USE THEREOF” (priority 2010, published 2011)

How the values were obtained:
skin = experiment: application to skin, detrimental skin effects; format: in vivo
From the text: The low pKa results in an acidic solution having a pH of about 1.9, which damages skin and results in skin peeling in the hours and/or days following application to skin.
The pH of skin is about 5.5. When the pH of the skin surface is less than about 3.8, skin peeling results. Additionally, side effects of skin adjusted to a pH of less than about 3.8 include: skin inflammation, dermatitis, itching, and/or sensitizing of the skin.

[1] = pH of acidic solution of the substance by itself; format: physicochemical; conditions: used by itself, unbuffered

Q: With `CC(=O)Oc1ccccc1C(=O)O` [acetylsalicyclic acid] as the compound, how does the “detrimental effects on skin” value (skin; in a composition having a pH of about 3.8 or less) read?
A: an acid burn of the skin, inflammation, itching, sensitizing, dermatitis, and/or skin peeling

Q: And the effect on skin (skin; used by itself, hours and/or days following application to skin)?
A: acts as a skin peeler

Q: What about the “pH of acidic solution” value [1] of the same compound?
A: about 1.9
